Results as given in patent US9211310B2, “Use of a Chinese medicine composition in preparing medicaments for treating secondary prevention of myocardial infarction” (TASLY PHARMACEUTICAL GROUP CO., LTD, priority 2010, dated 2015).

System: patients after acute myocardial infarction
Test: Angina pectoris score, total and single (frequency/attack times, duration, pain degree, dose of nitroglycerin), same clinical trial
Assay type: in vivo, human
Parameters: total angina pectoris score, Md / total angina pectoris score, Mean: scale not given here
Settings: for patients with change of dose of nitroglycerin score −6 (%) / distribution of total angina pectoris score: Medium, number of patients / distribution of total angina pectoris score: Medium, percentage of patients / distribution of total angina pectoris score: Mild, number of patients / distribution of total angina pectoris score: Mild, percentage of patients / distribution of total angina pectoris score: Severe, number of patients / distribution of total angina pectoris score: Severe, percentage of patients / patients with dose of nitroglycerin score 0 (%) / patients with dose of nitroglycerin score 1 (%) / patients with dose of nitroglycerin score 2 (%) / patients with dose of nitroglycerin score 4 (%) / patients with dose of nitroglycerin score 6 (%) / total angina pectoris score, Md / total angina pectoris score, Mean / change of total angina pectoris score, Md / change of total angina pectoris score, Mean / patients with change of dose of nitroglycerin score 0 (%) / patients with change of dose of nitroglycerin score 1 (%) / patients with change of dose of nitroglycerin score 2 (%) / patients with change of dose of nitroglycerin score 4 (%) / patients with change of dose of nitroglycerin score 6 (%) / patients with change of dose of nitroglycerin score −1 (%) / patients with change of dose of nitroglycerin score −2 (%) / patients with change of dose of nitroglycerin score −3 (%) / patients with change of dose of nitroglycerin score −4 (%) / patients with change of dose of nitroglycerin score −5 (%): PP; for attack times score, patients (%): month after treatment
Excerpt: In order to better understand the present invention, a multi-center, randomized, double-blind, double-dummy and positive drug controlled trial had been conducted. 3508 patients who were in accordance with the diagnostic standards of AMI for 28 days to 2 years and differentiated as Qi deficiency and blood stagnation syndrome by TCM were studied. 0.5 g Chinese medicine composition prepared by the method of EXAMPLE 1 (Coded as QSYQ) was administrated half an hour after meal, 3 times per day. Aspirine was used as a positive drug. The patients were treated for 1 year and observed for 6 months.
They included the overall survival time, angina pectoris score, TCM symptom score and life quality score, where angina pectoris score, TCM symptom score and life quality score were evaluated at randomization, in 1st, 3rd, 6th, 9th, 12th month after treatment and 18th month after follow-up.
(§1) Total angina pectoris score was described on every observation period and the change of observation in comparison with baseline. T-test or Wilcoxon rank sum test were used for inter-group comparison. Grade of total score was evaluated on every observation and Wilcoxon rank sum test was used for inter-group comparison. T-test and Pairing signed rank sum test were used for analyzing the change of total score on every observation between groups in comparison with the baseline.
(§2) Single angina pectoris score was depicted on every observation time-point and the change of observation in comparison with baseline. Wilcoxon rank sum test was used for inter-group comparison. Pairing signed rank sum test was used for analyzing the change of total score on every observation between groups in comparison with the baseline.
as §1, with “comparison with the baseline. T-test” for “comparison with baseline. T-test”
as §2, with “described” for “depicted”

[1] = 6 months after treatment-baseline
[2] = 9 months after treatment-baseline
[3] = 12 months after treatment-baseline

CC(=O)Oc1ccccc1C(=O)O [Control group, aspirine]
patients with change of dose of nitroglycerin score −6 (%) (3 months after treatment-baseline): (0.68%)
distribution of total angina pectoris score: Medium, number of patients (6 months after treatment): 278
distribution of total angina pectoris score: Medium, percentage of patients (6 months after treatment): (19.08%)
distribution of total angina pectoris score: Mild, number of patients (6 months after treatment): 1172
distribution of total angina pectoris score: Mild, percentage of patients (6 months after treatment): (80.44%)
distribution of total angina pectoris score: Severe, number of patients (6 months after treatment): 7
distribution of total angina pectoris score: Severe, percentage of patients (6 months after treatment): (0.48%)
patients with dose of nitroglycerin score 0 (%) (6 months after treatment): (67.13%)
patients with dose of nitroglycerin score 1 (%) (6 months after treatment): (1.03%)
patients with dose of nitroglycerin score 2 (%) (6 months after treatment): (27.85%)
patients with dose of nitroglycerin score 4 (%) (6 months after treatment): (2.75%)
patients with dose of nitroglycerin score 6 (%) (6 months after treatment): (1.24%)
total angina pectoris score, Md (6 months after treatment): 5.00
total angina pectoris score, Mean (6 months after treatment): 4.54
change of total angina pectoris score, Md [1]: −1.00
change of total angina pectoris score, Mean [1]: −2.58
patients with change of dose of nitroglycerin score 0 (%) [1]: (69.47%)
patients with change of dose of nitroglycerin score 1 (%) [1]: (0.48%)
patients with change of dose of nitroglycerin score 2 (%) [1]: (4.14%)
patients with change of dose of nitroglycerin score 4 (%) [1]: (0.28%)
patients with change of dose of nitroglycerin score 6 (%) [1]: (0.28%)
patients with change of dose of nitroglycerin score −1 (%) [1]: (0.28%)
patients with change of dose of nitroglycerin score −2 (%) [1]: (19.43%)
patients with change of dose of nitroglycerin score −3 (%) [1]: (0.00%)
patients with change of dose of nitroglycerin score −4 (%) [1]: (4.41%)
patients with change of dose of nitroglycerin score −5 (%) [1]: (0.21%)
patients with change of dose of nitroglycerin score −6 (%) [1]: (1.03%)
distribution of total angina pectoris score: Medium, number of patients (9 months after treatment): 233
distribution of total angina pectoris score: Medium, percentage of patients (9 months after treatment): (16.15%)
distribution of total angina pectoris score: Mild, number of patients (9 months after treatment): 1207
distribution of total angina pectoris score: Mild, percentage of patients (9 months after treatment): (83.65%)
distribution of total angina pectoris score: Severe, number of patients (9 months after treatment): 3
distribution of total angina pectoris score: Severe, percentage of patients (9 months after treatment): (0.21%)
patients with dose of nitroglycerin score 0 (%) (9 months after treatment): (68.96%)
patients with dose of nitroglycerin score 1 (%) (9 months after treatment): (1.25%)
patients with dose of nitroglycerin score 2 (%) (9 months after treatment): (27.43%)
patients with dose of nitroglycerin score 4 (%) (9 months after treatment): (1.39%)
patients with dose of nitroglycerin score 6 (%) (9 months after treatment): (0.97%)
total angina pectoris score, Md (9 months after treatment): 5.00
total angina pectoris score, Mean (9 months after treatment): 4.10
change of total angina pectoris score, Md [2]: −2.00
change of total angina pectoris score, Mean [2]: −3.02
patients with change of dose of nitroglycerin score 0 (%) [2]: (66.50%)
patients with change of dose of nitroglycerin score 1 (%) [2]: (0.42%)
patients with change of dose of nitroglycerin score 2 (%) [2]: (4.18%)
patients with change of dose of nitroglycerin score 4 (%) [2]: (0.28%)
patients with change of dose of nitroglycerin score 6 (%) [2]: (0.28%)
patients with change of dose of nitroglycerin score −1 (%) [2]: (0.56%)
patients with change of dose of nitroglycerin score −2 (%) [2]: (21.38%)
patients with change of dose of nitroglycerin score −3 (%) [2]: (0.14%)
patients with change of dose of nitroglycerin score −4 (%) [2]: (4.67%)
patients with change of dose of nitroglycerin score −5 (%) [2]: (0.21%)
patients with change of dose of nitroglycerin score −6 (%) [2]: (1.39%)
distribution of total angina pectoris score: Medium, number of patients (12 months after treatment): 171
distribution of total angina pectoris score: Medium, percentage of patients (12 months after treatment): (11.94%)
distribution of total angina pectoris score: Mild, number of patients (12 months after treatment): 1259
distribution of total angina pectoris score: Mild, percentage of patients (12 months after treatment): (87.92%)
distribution of total angina pectoris score: Severe, number of patients (12 months after treatment): 2
distribution of total angina pectoris score: Severe, percentage of patients (12 months after treatment): (0.14%)
patients with dose of nitroglycerin score 0 (%) (12 months after treatment): (74.81%)
patients with dose of nitroglycerin score 1 (%) (12 months after treatment): (1.33%)
patients with dose of nitroglycerin score 2 (%) (12 months after treatment): (22.18%)
patients with dose of nitroglycerin score 4 (%) (12 months after treatment): (0.91%)
patients with dose of nitroglycerin score 6 (%) (12 months after treatment): (0.77%)
total angina pectoris score, Md (12 months after treatment): 0.00
total angina pectoris score, Mean (12 months after treatment): 3.38
change of total angina pectoris score, Md [3]: −3.00
change of total angina pectoris score, Mean [3]: −3.71
patients with change of dose of nitroglycerin score 0 (%) [3]: (64.63%)
patients with change of dose of nitroglycerin score 1 (%) [3]: (0.63%)
patients with change of dose of nitroglycerin score 2 (%) [3]: (2.88%)
patients with change of dose of nitroglycerin score 4 (%) [3]: (0.07%)
patients with change of dose of nitroglycerin score 6 (%) [3]: (0.28%)
patients with change of dose of nitroglycerin score −1 (%) [3]: (0.63%)
patients with change of dose of nitroglycerin score −2 (%) [3]: (23.37%)
patients with change of dose of nitroglycerin score −3 (%) [3]: (0.07%)
patients with change of dose of nitroglycerin score −4 (%) [3]: (5.47%)
patients with change of dose of nitroglycerin score −5 (%) [3]: (0.07%)
patients with change of dose of nitroglycerin score −6 (%) [3]: (1.89%)
distribution of total angina pectoris score: Medium, number of patients (Baseline): 539
distribution of total angina pectoris score: Medium, percentage of patients (Baseline): (36.01%)
distribution of total angina pectoris score: Mild, number of patients (Baseline): 917
distribution of total angina pectoris score: Mild, percentage of patients (Baseline): (61.26%)
distribution of total angina pectoris score: Severe, number of patients (Baseline): 41
distribution of total angina pectoris score: Severe, percentage of patients (Baseline): (2.74%)
total angina pectoris score, Md (Baseline): 8.00
total angina pectoris score, Mean (Baseline): 7.20
distribution of total angina pectoris score: Medium, number of patients (Follow-up): 192
distribution of total angina pectoris score: Medium, percentage of patients (Follow-up): (13.64%)
distribution of total angina pectoris score: Mild, number of patients (Follow-up): 1215
distribution of total angina pectoris score: Mild, percentage of patients (Follow-up): (86.29%)
distribution of total angina pectoris score: Severe, number of patients (Follow-up): 1
distribution of total angina pectoris score: Severe, percentage of patients (Follow-up): (0.07%)
patients with dose of nitroglycerin score 0 (%) (Follow-up): (74.31%)
patients with dose of nitroglycerin score 1 (%) (Follow-up): (0.93%)
patients with dose of nitroglycerin score 2 (%) (Follow-up): (23.13%)
patients with dose of nitroglycerin score 4 (%) (Follow-up): (1.00%)
patients with dose of nitroglycerin score 6 (%) (Follow-up): (0.64%)
total angina pectoris score, Md (Follow-up): 0.00
total angina pectoris score, Mean (Follow-up): 3.60
change of total angina pectoris score, Md (Follow-up-baseline): −2.00
change of total angina pectoris score, Mean (Follow-up-baseline): −3.51
patients with change of dose of nitroglycerin score 0 (%) (Follow-up-baseline): (64.17%)
patients with change of dose of nitroglycerin score 1 (%) (Follow-up-baseline): (0.29%)
patients with change of dose of nitroglycerin score 2 (%) (Follow-up-baseline): (4.00%)
patients with change of dose of nitroglycerin score 4 (%) (Follow-up-baseline): (0.29%)
patients with change of dose of nitroglycerin score 6 (%) (Follow-up-baseline): (0.21%)
patients with change of dose of nitroglycerin score −1 (%) (Follow-up-baseline): (0.43%)
patients with change of dose of nitroglycerin score −2 (%) (Follow-up-baseline): (22.06%)
patients with change of dose of nitroglycerin score −3 (%) (Follow-up-baseline): (0.14%)
patients with change of dose of nitroglycerin score −4 (%) (Follow-up-baseline): (6.42%)
patients with change of dose of nitroglycerin score −5 (%) (Follow-up-baseline): (0.14%)
patients with change of dose of nitroglycerin score −6 (%) (Follow-up-baseline): (1.86%)
attack times score, patients (%) (score 0, FAS): (36.58%)
attack times score, patients (%) (score 0, PP): (36.33%)
attack times score, patients (%) (score 1, FAS): (10.72%)
attack times score, patients (%) (score 1, PP): (11.08%)
attack times score, patients (%) (score 2, FAS): (46.56%)
attack times score, patients (%) (score 2, PP): (46.88%)
attack times score, patients (%) (score 4, FAS): (6.02%)
attack times score, patients (%) (score 4, PP): (5.57%)
attack times score, patients (%) (score 6, FAS): (0.11%)
attack times score, patients (%) (score 6, PP): (0.13%)
